# Source: patent US10881698B2, “Diagnosis and treatment for respiratory tract diseases” (THE TRUSTEES OF THE UNIVERSITY OF PENNSYLVANIA, priority 2012, dated 2021)
# Residue numbers refer to the chain shown, from its start.
# How the values were obtained:
# T2R38 [1] = target: T1, T2R38 (Homo sapiens, UniProt P59533, A49P/I296V); test: DAF-FM imaging of NO production in human sinonasal ALI cultures; format: cell-based
# T1 construct: T2R38 is expressed in human upper airway epithelium; endogenous in cells; host or cells: primary human sinonasal epithelial cells, air-liquid interface cultures from surgical patients
# T1 sequence (P59533 1-333 A49P/I296V): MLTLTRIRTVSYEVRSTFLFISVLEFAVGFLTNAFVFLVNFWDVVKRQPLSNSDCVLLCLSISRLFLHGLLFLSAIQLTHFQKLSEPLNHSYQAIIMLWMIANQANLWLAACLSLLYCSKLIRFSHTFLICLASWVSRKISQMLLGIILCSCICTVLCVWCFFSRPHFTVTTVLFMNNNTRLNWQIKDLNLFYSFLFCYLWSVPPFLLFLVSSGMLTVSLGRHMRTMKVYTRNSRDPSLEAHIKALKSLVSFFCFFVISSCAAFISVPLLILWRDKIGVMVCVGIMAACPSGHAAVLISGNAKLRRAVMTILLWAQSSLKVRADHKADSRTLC
# T2R38 [2] = test: as above; format: cell-based
# sinonasal ALI cultures = format: cell-based, human
# Pseudomonas aeruginosa [3] = test system: Pseudomonas aeruginosa
# [4] = test system: sinonasal epithelial cells; test: DAF-FM NO production with quinine in PAV/AVI heterozygote sinonasal epithelial cells; format: cell-based, human
# AVI-TAS2R38 = target: T2, AVI-TAS2R38 (Homo sapiens, UniProt P59533, A262V); test: Fluo-4 calcium mobilization in HEK293 cells expressing hTAS2R38 (AVI) and Gα16gustducin44; format: cell-based; settings: 1 mM agonist; AVI variant
# T2 construct: first 45 amino acids of rat SSTR-3 (N); host or cells: HEK293 (peakRapid), transient transfection, pcDNA3.1(+)
# T2 sequence (P59533 1-333 A262V): T1 sequence (P59533 1-333 A49P/I296V) with P49A, A262V, V296I
# PAV-TAS2R38 = target: T3, PAV-TAS2R38 (Homo sapiens, UniProt P59533, A49P/I296V); test: Fluo-4 calcium mobilization in HEK293 cells expressing hTAS2R38 (PAV) and Gα16gustducin44; format: cell-based; settings: 1 mM agonist; PAV variant
# T3 construct: first 45 amino acids of rat SSTR-3 (N); host or cells: HEK293 (peakRapid), transient transfection, pcDNA3.1(+)
# T3 sequence (P59533 1-333 A49P/I296V): T1 sequence (P59533 1-333 A49P/I296V)
# [5] = test system: acutely dissociated sinonasal ciliated epithelial cells; test: Ca2+ and DAF-FM responses in acutely dissociated sinonasal ciliated cells; format: cell-based, human
# T2R38 [6] = target: T1, T2R38; test: NO metabolites in airway surface liquid by chemiluminescence; format: cell-based; settings: 1 mM PTC; PAV/PAV
# Description: (§1) ASL from stimulated and unstimulated cultures (20 μL total volume for each) was collected after 20 min at 37° C. and frozen at −20° C. and protected from light until analysis. NO-metabolites were evaluated by reduction of metabolites with acidified-heated vanadium to nitric oxide and detection of nitric oxide by chemiluminescence on the Sievers 280 nitric oxide analyzer. Samples were injected into a custom made purge container containing 0.05 M Vanadium chloride in 1 N HCl heated to 95° C. The reading in millivolts was compared to a standard curve generated by injecting standard solutions of nitrate. This reductive method reports on the total levels of nitrate, nitrite, N-nitroso and iron-nitrosyl adducts as well as low molecular weight and protein S-nitrosothiol adducts.
# (§2) The antibacterial properties of NO help maintain the sterility of the sinonasal airways. […] NO diffusion into the ASL was quantified by measuring NO-derived byproducts in 20 μL of airway surface liquid from cultures stimulated with 1 mM PTC (or PBS alone) for 20 min using reductive chemistries coupled with chemiluminescence detection of nitric oxide (FIG. 20A). ASL levels of NO metabolites (nitrate, nitrite, N-nitroso and iron-nitrosyl adducts as well as low molecular weight and protein S-nitrosothiol adducts) were not different in unstimulated PAV/PAV and AVI/AVI cultures (0.41±0.13 pmol/μL for PAV/PAV and 0.66±0.33 for AVI/AVI; n.s. vs PAV/PAV). However, the increase observed in PTC-stimulated PAV/PAV cultures was >2-fold larger than that observed in AVI/AVI cultures (FIG. 20A). In PTC stimulated cultures, NO metabolites in the ASL over 20 minutes were 4.37 pmol/μL (PAV/PAV; P<0.001 vs unstimulated PAV/PAV) and 1.72 pmol/μL (AVI/AVI; P<0.01 vs stimulated PAV/PAV; n.s. vs unstimulated AVI/AVI).
# T2R38 [7] = test: as above; format: cell-based, human; settings: 1 mM PTC; 20 min
# Description: as §1, §2
# T2R38 [8] = target: T4, T2R38 (Homo sapiens, UniProt P59533, A262V); test: as above; format: cell-based; settings: 1 mM PTC; AVI/AVI
# T4 construct: T2R38 is expressed in human upper airway epithelium; endogenous in cells; host or cells: primary human sinonasal epithelial cells, air-liquid interface cultures from surgical patients
# T4 sequence (P59533 1-333 A262V): T1 sequence (P59533 1-333 A49P/I296V) with P49A, A262V, V296I
# Description: as §1, §2
# T2R38 [9] = target: T1, T2R38; test: Fluo-4 Ca2+ imaging in primary human sinonasal ALI cultures; format: cell-based; settings: 1 mM PTC; PAV/PAV cultures
# T2R38 [10] = test: as above; format: cell-based; settings: 1 mM PTC; PAV/AVI cultures
# T2R38 [11] = target: T4, T2R38; test: as above; format: cell-based; settings: 1 mM PTC; AVI/AVI cultures
# T2R38 [12] = target: T1, T2R38; test: DAF-2/Texas Red dextran ratio assay of NO secretion into ASL; format: cell-based; settings: 1 mM PTC, PAV/PAV
# Description: (§3) For measurement of NO secretion, a protocol was developed in which a solution of Texas Red Dextran (an NO-insensitive cell-impermeant dye) and DAF-2 (an NO-sensitive cell-impermeant dye) were added in a small volume (10 μl) to the apical surface of the cultures. The ratio of DAF-2/Texas Red fluorescence was recorded using wide-field epifluorescence microscopy at baseline and after incubation at 37° C. for the indicated times. This experiment was validated by addition of DETA-NONOate, an NO donor that releases 2 moles of NO per mole of parent molecule. DETA-NONOate was added on top of ALI cultures in pH 5 buffer to stimulate rapid decomposition. Imaging was performed using a Nikon 20×0.5 NA PlanFluor objective and 100 W mercury arc lamp with filters from Chroma Technologies (Rockingham, Vt.). Green filter contained a 480/40 nm band-pass [bp] excitation filter (reported as max transmission wavelength/filter width at half maximal transmission), a 505 nm dichroic mirror, and a 535/40 nm by emission filter. Red filter set contained a 560/40 nm by excitation filter, 595 dichroic mirror, and 630/60 nm by emission filter.
# (§4) We also utilized a fluorescence-based assay to measure NO diffusion into the ASL. The apical surface of cultures was overlaid with a small volume (10 μl) of phosphate-buffered saline with or without 1 mM PTC containing 2 spectrally distinct cell-impermeant dyes, the NO-sensitive 4,5-diaminofluorescence diacetate (DAF-2) and the NO-insensitive Texas Red dextran ([…] MW); a ratiometric measurement was used to eliminate any artifacts due to expansion or contraction of ASL volume. The ratio of DAF-2/Texas Red fluorescence was recorded by fluorescence microscopy after 5, 30 and 60 min incubations at 37° C. […] We utilized this assay to determine if exposure to Pseudomonas and their secretions was sufficient to cause epithelial cells to produce NO with subsequent diffusion into the ASL. Log-phase cultures of PAO1 and PAO-JP2 were resuspended in PBS and placed on the ALI surface in the presence of DAF-2 and Texas Red.
# T2R38 [13] = target: T4, T2R38; test: as above; format: cell-based; settings: 1 mM PTC, AVI/AVI
# Description: as §3, §4
# Kleibsiella pneumoniae = test: Bactericidal effect of ASL from treated nasal cultures; format: cell-based; settings: 10 mM denatonium or 300 μM absinthin
# [14] = test system: Methicillin-resistant Staphylococcus aureus (MRSA); test: Kill assay with ASL from stimulated sinonasal ALI cultures (CFU plating); format: cell-based; settings: for Growth of bacteria mixed with ASL from stimulated cultures: 10 mM denatonium, 300 μM absinthin; for Effect of solutions alone on growth: no ASL
# Pseudomonas aeruginosa [15] = test: as above; format: cell-based; settings: for Growth of bacteria mixed with ASL from stimulated cultures: 10 mM denatonium, 300 μM absinthin, Pseudomonas aeruginosa; for Effect of solutions alone on growth: no ASL, Pseudomonas
# beta-defensin 2 = test: Beta-defensin 2 secretion by sinonasal cultures; format: cell-based, human
# nasal epithelial cells = test: Fluo-4 calcium signaling with denatonium in nasal epithelial cells (sinonasal ALI cultures); format: cell-based, human; settings: 0.1-20 mM denatonium
smiles,measurement,setting,value
"COC(=O)[C@@H](N)CCCNC(=N)N[N+](=O)[O-] [L-NAME, L-N^G-Nitroarginine methyl ester]",Effect on C4HSL-induced NO production in taster cultures,T2R38 [1],represses the NO production
same,Effect on NaSCN-activated DAF-FM fluorescence,T2R38 [2],blocked
same,Effect on CBF increase in response to 6.25% PAO1 supernatant,sinonasal ALI cultures,significantly inhibited
same,Effect on HSL-stimulated CBF increase,sinonasal ALI cultures,blocked
same,% green (viable) PAO1,Pseudomonas aeruginosa [3],90±2%
same,Effect on quinine-stimulated NO production,[4]; L-NAME 20 μM,inhibited
"NC(=S)Nc1ccccc1 [PTC, phenylthiocarbamide]",Peak Fluo-4 fluorescence (ΔF/F),AVI-TAS2R38,−4±1%
same,Peak Fluo-4 fluorescence (ΔF/F),PAV-TAS2R38,114±4%
same,Ca2+ responses in acutely dissociated sinonasal ciliated cells,[5],occurred
same,NO metabolites in the ASL over 20 minutes,T2R38 [6],4.37 pmol/µL
same,"Increase in NO metabolites, PTC-stimulated PAV/PAV relative to AVI/AVI cultures",T2R38 [7],> 2 fold
same,NO metabolites in the ASL over 20 minutes,T2R38 [8],1.72 pmol/µL
same,Fluo-4 fluorescence after 5 min PTC,T2R38 [9],1.30±0.027
same,Fluo-4 fluorescence after 5 min PTC,T2R38 [10],1.14±0.035
same,Fluo-4 fluorescence after 5 min PTC,T2R38 [11],1.06±0.02
same,DAF-2/Texas Red Dextran fluorescence ratio after PTC stimulation,T2R38 [12]; 5 min,0.46±0.10
same,DAF-2/Texas Red Dextran fluorescence ratio after PTC stimulation,T2R38 [12]; 30 min,1.55±0.17
same,DAF-2/Texas Red Dextran fluorescence ratio after PTC stimulation,T2R38 [12]; 60 min,2.52±0.76
same,DAF-2/Texas Red Dextran fluorescence ratio after PTC stimulation,T2R38 [13]; 5 min,0.54±0.1
same,DAF-2/Texas Red Dextran fluorescence ratio after PTC stimulation,T2R38 [13]; 30 min,0.71±0.1
same,DAF-2/Texas Red Dextran fluorescence ratio after PTC stimulation,T2R38 [13]; 60 min,0.90±0.3
CC1=C[C@H]2[C@H]3[C@H](C(C)=C4[C@H]5OC(=O)[C@@H](C)[C@@H]5CC[C@](C)(O)[C@@H]43)[C@@]13[C@@H]2[C@@](C)(O)CC[C@H]1[C@H](C)C(=O)O[C@@H]13 [absinthin],Bactericidal effect of ASL from treated nasal cultures,Kleibsiella pneumoniae,significant bactericidal effects
same,Growth of bacteria mixed with ASL from stimulated cultures,[14],0 CFUs
same,Effect of solutions alone on growth,[14],had no effect
same,Growth of bacteria mixed with ASL from stimulated cultures,Pseudomonas aeruginosa [15],0 CFUs
same,Effect of solutions alone on growth,Pseudomonas aeruginosa [15],had no effect
same,Beta-defensin 2 secretion,beta-defensin 2,induced
"CC[N+](CC)(CC(=O)Nc1c(C)cccc1C)Cc1ccccc1 [denatonium, denatonium benzoate]",Bactericidal effect of ASL from treated nasal cultures,Kleibsiella pneumoniae,significant bactericidal effects
same,Peak Fluo-4 fluorescence (ΔF/F),AVI-TAS2R38,3±1%
same,Growth of bacteria mixed with ASL from stimulated cultures,[14],0 CFUs
same,Effect of solutions alone on growth,[14],had no effect
same,Growth of bacteria mixed with ASL from stimulated cultures,Pseudomonas aeruginosa [15],0 CFUs
same,Effect of solutions alone on growth,Pseudomonas aeruginosa [15],had no effect
same,Peak Fluo-4 fluorescence (ΔF/F),PAV-TAS2R38,1±2%
same,Beta-defensin 2 secretion,beta-defensin 2,induced
same,NO production with non-T2R38 bitter ligands,"T2R38 [1]; thujone 5 mM, denatonium 10 mM, PAV/PAV cultures",did not stimulate NO production
same,Fluo-4 fluorescence on stimulation with denatonium,nasal epithelial cells,increases fluo-4 fluorescence
C=C[C@H]1C[N@@]2CC[C@H]1C[C@H]2[C@H](O)c1ccnc2ccc(OC)cc12 [quinine],NO production (increase in DAF-FM fluorescence),"[4]; apical application, PAV/AVI heterozygote cells",stimulated a robust NO production
